The test system of this series is rodent carcinogenicity bioassays, tumor incidence. The series can be described thus: CCRIS carcinogenicity studies. The method in brief:
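NCI-built, expert-reviewed records of carcinogenicity and related test outcomes (mutagenicity, tumor promotion/inhibition) compiled from published and report sources, historical span 1985-2011, not updated.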

Each structure is given as a SMILES string. Activity calls are given as the source filed them. How the calls were made is not given here.

For `CC(C)([CH2][Sn]([CH2]C(C)(C)c1ccccc1)([CH2]C(C)(C)c1ccccc1)[O][Sn]([CH2]C(C)(C)c1ccccc1)([CH2]C(C)(C)c1ccccc1)[CH2]C(C)(C)c1ccccc1)c1ccccc1`, the carcinogen call reads like this: (Species: Mouse, Strain/Sex: Unspecified strain/Female (96/Control group; 48/Experimental group), Route: Oral, Dose: 0, 50, 100, 300, 600 ppm of 97% fenbutatin oxide in the diet for 18 mo, study duration 18 mo, Dose: 0, 50, 100, 300, 600 ppm of 97% fenbutatin oxide in the diet for 18 mo, study duration 18 mo) “inactive; negative”; (Species: Mouse, Strain/Sex: Unspecified strain/Male (96/Control group; 48/Experimental group), Route: Oral, Dose: 0, 50, 100, 300, 600 ppm of 97% fenbutatin oxide in the diet for 18 mo, study duration 18 mo, Dose: 0, 50, 100, 300, 600 ppm of 97% fenbutatin oxide in the diet for 18 mo, study duration 18 mo) “inactive; negative”; (Species: Rat, Strain/Sex: Carworth Farm E/Female (96/Control group; 48/Experimental group), Route: Oral, Dose: 0, 50, 100, 300, 600 ppm of 97% fenbutatin oxide in the diet for 2 yr, study duration 2 yr, Dose: 0, 50, 100, 300, 600 ppm of 97% fenbutatin oxide in the diet for 2 yr, study duration 2 yr) “inactive; negative”; (Species: Rat, Strain/Sex: Carworth Farm E/Male (96/Control group; 48/Experimental group), Route: Oral, Dose: 0, 50, 100, 300, 600 ppm of 97% fenbutatin oxide in the diet for 2 yr, study duration 2 yr, Dose: 0, 50, 100, 300, 600 ppm of 97% fenbutatin oxide in the diet for 2 yr, study duration 2 yr) “inactive; negative”.

For `CCCCCCCCCCCCCC(=O)ON(C(C)=O)c1ccc2c(c1)Cc1cc(I)ccc1-2`, under “Species: RAT, Strain/Sex: F344/MALE, Route: SUBCUTANEOUS, Dose: 10.6 UMOL IN 0.2 ML DMSO-TRIOCTANOIN 1/WK FOR 6 WK, Tumor Site: Type of Lesion: INJECTION SITE: FIBROSARCOMA OR FIBROMYOSARCOMA OR FIBROLIPOSARCOMA”, the carcinogen call was “active; positive”.

As to `CCN(CC(=O)O)N=O`, the carcinogen call by setting is: (Species: MOUSE, Strain/Sex: BALB/C/MALE, Route: ORAL, Dose: 0, 1000, 2000 PPM IN DRINKING WATER FOR 2 WK (STUDY DURATION: 52 WK), Dose: 0, 1000, 2000 PPM IN DRINKING WATER FOR 2 WK (STUDY DURATION: 52 WK)) “inactive; negative”; (Species: RAT, Strain/Sex: WISTAR/MALE, Route: ORAL, Dose: 0, 1000, 2000 PPM IN DRINKING WATER FOR 2 WK (STUDY DURATION: 52 WK), Dose: 0, 1000, 2000 PPM IN DRINKING WATER FOR 2 WK (STUDY DURATION: 52 WK)) “inactive; negative”.

With `ClC(Cl)(Cl)Cl`, the carcinogen call (Species: FISH, Strain/Sex: RAINBOW TROUT, Route: INTRAPERITONEAL, Dose: 0, 1 ML/KG AT 21 D INTERVALS FOR A TOTAL OF 7 DOSES (STUDY DURATION: 6 MO)) is “inactive; negative”; the carcinogen call (Species: MOUSE, Route: ORAL, GAVAGE, Tumor Site: Type of Lesion: LIVER: HEPATOMA, HEPATOCELLULAR CARCINOMA) is “active; positive”; the carcinogen call (Species: Mouse, Strain/Sex: BDF1/Female (50/group), Route: Inhalation, Dose: 0, 5, 25, 125 ppm (v/v) 6 hr/d, 5 d/wk for 104 wk, Dose: 0, 5, 25, 125 ppm (v/v) 6 hr/d, 5 d/wk for 104 wk, Tumor Site: Type of Lesion: Liver: hepatocellular carcinoma (2/50; 1/49; 33/50; 48/49), hepatocellular adenoma (2/50; 8/49; 17/50; 5/49). Adrenal Gl, Tumor Site: Type of Lesion: Liver: hepatocellular carcinoma (2/50; 1/49; 33/50; 48/49), hepatocellular adenoma (2/50; 8/49; 17/50; 5/49). Adrenal Gl) is “active; positive”; the carcinogen call (Species: Mouse, Strain/Sex: BDF1/Male (50/group), Route: Inhalation, Dose: 0, 5, 25, 125 ppm (v/v) 6 hr/d, 5 d/wk for 104 wk, Dose: 0, 5, 25, 125 ppm (v/v) 6 hr/d, 5 d/wk for 104 wk, Tumor Site: Type of Lesion: Liver: hepatocellular carcinoma (17/50; 12/50; 44/50; 47/50), hepatocellular adenoma (9/50; 10/50; 27/50; 16/50). Adrena, Tumor Site: Type of Lesion: Liver: hepatocellular carcinoma (17/50; 12/50; 44/50; 47/50), hepatocellular adenoma (9/50; 10/50; 27/50; 16/50). Adrena) is “active; positive (dose related metastasis of liver tumors to lung)”; the carcinogen call (Species: RAT, Route: SUBCUTANEOUS, Tumor Site: Type of Lesion: LIVER: HEPATOCELLULAR CARCINOMA) was “active; positive”; the carcinogen call (Species: Rat, Strain/Sex: F344/Female (50/group), Route: Inhalation, Dose: 0, 5, 25, 125 ppm (v/v) 6 hr/d, 5 d/wk for 104 wk, Dose: 0, 5, 25, 125 ppm (v/v) 6 hr/d, 5 d/wk for 104 wk, Tumor Site: Type of Lesion: Liver: hepatocellular carcinoma (0/50; 0/50; 3/50; 15/50), hepatocellular adenoma (0/50; 0/50; 40/50), Tumor Site: Type of Lesion: Liver: hepatocellular carcinoma (0/50; 0/50; 3/50; 15/50), hepatocellular adenoma (0/50; 0/50; 40/50)) is “active; positive”. Moreover, where the note is “Species: Rat, Strain/Sex: F344/Male (50/group), Route: Inhalation, Dose: 0, 5, 25, 125 ppm (v/v) 6 hr/d, 5 d/wk for 104 wk, Dose: 0, 5, 25, 125 ppm (v/v) 6 hr/d, 5 d/wk for 104 wk, Tumor Site: Type of Lesion: Liver: hepatocellular carcinoma (1/50; 0/50; 32/50), hepatocellular adenoma (0/50; 1/50; 21/50), Tumor Site: Type of Lesion: Liver: hepatocellular carcinoma (1/50; 0/50; 32/50), hepatocellular adenoma (0/50; 1/50; 21/50)”, the carcinogen call was “active; positive”.

Consider `ClC/C=C/CCl`, for which the carcinogen call reads like this: (Species: RAT, Strain/Sex: CD/MALE, Route: INHALATION, Dose: 0, 0.1, 0.3, 1.0 PPM 6 HR/D 5 D/WK FOR 86 WK (STUDY DURATION: 86 WK), Dose: 0, 0.1, 0.3, 1.0 PPM 6 HR/D 5 D/WK FOR 86 WK (STUDY DURATION: 86 WK), Tumor Site: Type of Lesion: NASAL CAVITY: ADENOMA, ADENOCARCINOMA, CARCINOSARCOMA, MIXED CARCINOMA) “active; positive”; (Species: Rat, Strain/Sex: CD BR/Female (140/group), Route: Inhalation, Dose: 0, 0.5 6 hr/d for 2 yr, 5 ppm 6 hr/d lowered to 2.5 ppm after 7 mo and continued an additional 5 mo with a 1-yr maintena, Dose: 0, 0.5 6 hr/d for 2 yr, 5 ppm 6 hr/d lowered to 2.5 ppm after 7 mo and continued an additional 5 mo with a 1-yr maintena, Tumor Site: Type of Lesion: Nasal Passages: Benign (0 (0%), 23 (18%), 5 (3.9%)) and malignant tumors (0 (0%), 2 (1.6%), 113 (88.3%))) “active; positive”; (Species: Rat, Strain/Sex: CD BR/Male (140/group), Route: Inhalation, Dose: 0, 0.5 6 hr/d for 2 yr, 5 ppm 6 hr/d lowered to 2.5 ppm after 7 mo and continued an additional 5 mo with a 1-yr maintena, Dose: 0, 0.5 6 hr/d for 2 yr, 5 ppm 6 hr/d lowered to 2.5 ppm after 7 mo and continued an additional 5 mo with a 1-yr maintena, Tumor Site: Type of Lesion: Nasal Passages: Benign (0 (0%), 33 (25.4%), 2 (1.6%)) and malignant tumors (0 (0%), 11 (8.5%), 114 (88.4%))) “active; positive”.

With `OCC(Cl)(Cl)Cl`, the carcinogen call is, setting by setting: (Species: MOUSE, Strain/Sex: B6C3F1/FEMALE, Route: INTRAPERITONEAL, Dose: 0, 1000 NMOL TOTAL DOSE, 1/3 AND 2/3 OF THE TOTAL DOSE ADMINISTERED AT 8 AND 15 DAYS OF AGE RESPECTIVELY, ANIMALS TERMIN) “inactive; negative”; (Species: MOUSE, Strain/Sex: B6C3F1/FEMALE, Route: INTRAPERITONEAL, Dose: 0, 2000 NMOL TOTAL DOSE, 3/7 AND 4/7 OF THE TOTAL DOSE ADMINISTERED AT 8 AND 15 DAYS OF AGE RESPECTIVELY, ANIMALS TERMIN) “inactive; negative”; (Species: MOUSE, Strain/Sex: B6C3F1/MALE, Route: INTRAPERITONEAL, Dose: 0, 1000 NMOL TOTAL DOSE, 1/3 AND 2/3 OF THE TOTAL DOSE ADMINISTERED AT 8 AND 15 DAYS OF AGE RESPECTIVELY, ANIMALS TERMIN) “inactive; negative”; (Species: MOUSE, Strain/Sex: B6C3F1/MALE, Route: INTRAPERITONEAL, Dose: 0, 2000 NMOL TOTAL DOSE, 3/7 AND 4/7 OF THE TOTAL DOSE ADMINISTERED AT 8 AND 15 DAYS OF AGE RESPECTIVELY, ANIMALS TERMIN) “inactive; negative”.

Consider `Nc1ccc(N=Nc2ccccc2)c(N)c1`, for which the carcinogen call (Species: MOUSE, Route: ORAL, Tumor Site: Type of Lesion: HEMATOPOIETIC SYSTEM (LEUKEMIA), LYMPHATIC SYSTEM: LYMPHOMA, LIVER, Tumor Site: Type of Lesion: HEMATOPOIETIC SYSTEM (LEUKEMIA), LYMPHATIC SYSTEM: LYMPHOMA, LIVER) is “active; positive”.

As to `Clc1c2ccccc2cc2c1ccc1ccccc12`, the carcinogen call (Species: MOUSE, Strain/Sex: B6C3F1/MALE, Route: INTRAPERITONEAL, Dose: 0, 1600 NMOL (TOTAL DOSE) ADMINISTERED IN DOSES OF 1/7 WITHIN 24 HR OF BIRTH, 2/7 AT 8 DAYS OF AGE AND 4/7 AT 15 DAYS OF, Tumor Site: Type of Lesion: LIVER: ADENOMA, CARCINOMA) was “active; positive”.

Source of the values: PubChem BioAssay AID1259411 (Chemical Carcinogenesis Research Information System (CCRIS), 2018).
